The source of these data is US12054497B2, “Substituted heterocyclic fused cyclic compound, preparation method therefor and pharmaceutical use thereof” (GENFLEET THERAPEUTICS (SHANGHAI) INC., priority 2019, dated 2024).

Data set [1] concerns subcutaneous xenograft tumor model of MIA PaCa-2. As to the kind of experiment: In vivo pharmacodynamic experiment, tumor growth inhibition (Test Example 5). The arrangement: species or system BALB/c nude mice. The note with it: p.o., QD; for TGI: day 14. How it is done: Experimental objective: to evaluate the in vivo pharmaceutical effects of tested compounds on the subcutaneous xenograft tumor model of MIA PaCa-2.
Experimental operation: 6 to 8 weeks old female BALB/c nude mice each having the body weight of 18-20 g were chosen. MIA PaCa-2 cells were cultured in DMEM containing 10% FBS, 2.5% HS and 1% penicillin-streptomycin at 37° C. in an incubator with 5% CO2. Cells were collected. The MIA PaCa-2 cells were subcutaneously inoculated to the animals at their backs on the right, 2.0×10^6 cells (0.1 mL) for each animal. When tumor grew to 190-311 mm^3, mice with tumor having a suitable size were chosen and treated in groups, with administration dosages shown in Table 5 below. The animals were weighed on an electronic balance each day. The tumor volume was investigated by using a vernier caliper twice a week. The tumor volume was calculated by the following equation: V=0.5 a×b^2, a and b representing the long diameter and the short diameter of the tumor, respectively. The tumor volume was used to calculate a tumor growth inhibition rate (TGI), and the TGI shown in the form of a percentage was used to indicate the antineoplastic activity of a compound. The TGI was calculated by the following equation: TGI (%)=[1−avTi−0/avCi−0)]×100, with avTi−0 representing the average tumor volume of the group administrated with the compound on a specific day minus the average tumor volume of this group on the day of grouping, and avCi−0 representing the average tumor volume of the solvent control group on a specific day minus the average tumor volume of the solvent control group on the day of grouping. The tumor volume was shown in the form of an average value±standard error of mean (SEM).

The nature of data set [2]: Pharmacokinetic evaluation on mice, intragastric (PO) administration (Test Example 6). Format: in vivo. Conditions: PO 15 mg/kg, male CD-1 mice. On the procedure:
(§1) Experimental objective: male CD-1 mice were chosen as tested animals, and the LC-MS-MS method was employed to measure the concentrations of a tested compound in blood plasma of a mouse intravenously and intragastrically administrated with the tested compound at different times. The pharmacokinetic behaviors of tested compounds in mice were studied, and the pharmacokinetic characteristics thereof were evaluated.
(§2) Experimental scheme: experimental animals: 18 healthy adult male CD-1 mice (6 to 8 weeks old, and body weight about 30 g) were divided into 6 groups according to the principle of similar body weights: 3 mice in each of IV groups (3 groups), and 3 mice in each of PO groups (3 groups). The animals were purchased from Shanghai Jihui Laboratory Animal Care Co., Ltd.
(§3) Formulation: IV group: taking 10 mL of sample solution for example, 4 mg of sample was weighed, orderly added with 0.5 mL of DMSO and […], then added with […] of HP-p-CD, finally added with water to a constant volume of 10 mL, and stirred and subjected to ultrasonic irradiation, thereby obtaining a 0.4 mg/mL clear solution. PO group: an appropriate amount of sample was weighed, orderly added with appropriate amounts of Labrasol and water in a volume ratio of 10:40, and stirred and subjected to ultrasonic irradiation, thereby obtaining a 1.5 mg/mL uniform solution.
(§4) Administration: after being deprived of food for one night, the IV groups were intravenously administrated with the formulated solutions, respectively, with an injection volume of 5 mL/kg and a dosage of 2 mg/kg. The PO groups were intragastrically administrated with the formulated solutions, respectively, with an injection volume of […] and a dosage of 15 mg/kg.
(§5) Experimental operations: after the intravenous injection groups and the intragastric administration groups of the male CD-1 mice were administrated with the tested compounds, 110 ul of blood was sampled at the following time points: 0.0833, 0.25, 0.5, 1, 2, 4, 6, 8, and 24 hours. The sampled blood was placed into an anticoagulant tube which was added with K2EDTA in advance and preserved in dry ice. The tube was centrifuged for 15 minutes to separate blood plasma, and the separated blood plasma was preserved at −70° C. The animals were allowed to be fed after 4 hours of administration. The LC-MS-MS method was employed to measure the concentration of the tested compounds in the blood plasma after the intravenous and intragastric administration to the mice. The linear range of the method was 1-3000 ng/ml. The blood plasma samples were analyzed after protein precipitation with ACN.

Data set [3] is described as follows: Pharmacokinetic evaluation on mice, intravenous administration (Test Example 6). Format: in vivo. The note with it: male CD-1 mice, IV 2 mg/kg. How it is done:
as §1, §2, §3, §4, §5

Broadly, the Cmax is the highest concentration seen after dosing. Broadly, the Tmax is the time from dosing to the highest level. `C=CC(=O)N1CCN(c2nc(=O)n(-c3c(C)ccnc3C(C)C)c3nc(-c4c(O)cccc4F)c(F)cc23)[C@@H](C)C1` [AMG 510, reference compound]: in data set [1] (1 mg/kg), the “Tumor Volume on Day 14 after Administration” value (“Tumor Volume” below) is recorded as 314.28 mm^3 and the TGI is on record as 82.8%. Further, in data set [1] (3 mg/kg), the “Tumor Volume” value was 205.35 mm^3 and the TGI amounted to 109.1%. Besides, in data set [1] (10 mg/kg), the “Tumor Volume” value came to 81.72 mm^3 and the TGI was 138.9%. Also, in data set [2], the “F (bioavailability)” value was 36.10%. Moreover, in data set [2] (plasma), the maximum concentration (Cmax) came out at 1221 ng/mL and the Tmax was 60 min. Also, in data set [3], the “Cl (clearance rate)” value is 73.2 mL/min/kg, the “T1/2 (half-life)” value was determined as 19.1 min and the “Vd (volume of distribution)” value is given as 1.15 L/kg.
